pIC50: −log10 of the molar value.
Key:
[1] = test system: extracellular signal-regulated kinase (ERK); details: preclinical studies; cited from earlier work
[2] = test system: MIA PaCa-2 (human pancreatic carcinoma) cells; test: Cell viability assay (CellTiter-Glo), MIA PaCa-2; assay type: cell-based; details: 72 h
Protocol: (§1) MIA PaCa-2 (human pancreatic carcinoma; ATCC CRL-1420) or A549 (human lung carcinoma; ATCC CCL-185) cells were cultured in RPMI 1640 medium containing 10% fetal bovine serum and 1× penicillin/streptomycin/L-glutamine. Cells were seeded in 384-well plates at a density of 1.67E+04 cells/mL and incubated at 37° C., 5% CO2, overnight. Serially-diluted compound or DMSO was added to the cells, and plates were incubated at 37° C., 5% CO2 for 72 h. Cell viability was measured using a CellTiter-Glo® Luminescent Cell Viability Assay kit (Promega) according to the manufacturer's protocol. The luminescence signal of treated samples was normalized to DMSO control, and data were analyzed using a 4-parameter logistic model to calculate IC50 values.

[3] = test system: A549 (human lung carcinoma) cells; test: Cell viability assay (CellTiter-Glo), A549; assay type: cell-based; details: 72 h
Protocol: as §1

[4] = target: GDP-bound KRAS protein (aa 1-169), containing both G12C and C118A amino acid substitutions (Homo sapiens, UniProt P01116, C118A/G12C); test: Coupled nucleotide exchange assay (SOS-mediated, AlphaScreen); assay type: biochemical; details: 2 h compound pre-incubation; read-out: Avg 2 h Coupled exchange IC50
Sequence of GDP-bound KRAS protein (aa 1-169), containing both G12C and C118A amino acid substitutions (P01116 1-169 isoform P01116-2 G12C/C118A): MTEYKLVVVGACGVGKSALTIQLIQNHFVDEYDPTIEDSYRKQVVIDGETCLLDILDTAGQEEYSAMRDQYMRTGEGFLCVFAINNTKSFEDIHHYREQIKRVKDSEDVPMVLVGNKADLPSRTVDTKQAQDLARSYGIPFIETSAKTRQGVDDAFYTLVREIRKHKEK
Protocol: Coupled Nucleotide Exchange Assay:
For all subsequent steps, DTT was added to the reaction buffer at a final concentration of 1 mM. […] The assay plates were then read on a plate reader measuring luminescence signal. Signal intensity of compound-containing wells were normalized to DMSO control, and data were analyzed using a 4-parameter logistic model to calculate IC50 values.

Compound	inhibition of ERK phosphorylation [1]	pIC50 [2]	pIC50 [3]	pIC50 [4]	IC50 [4]
C=CC(=O)N1CCN(c2nc(=O)n(-c3c(C)ccnc3C(C)C)c3nc(-c4c(O)cccc4F)c(F)cc23)[C@@H](C)C1 [AMG 510]	inhibited nearly all detectable phosphorylation	–	–	–	–
C=CC(=O)N1CC2(CCN(c3nc4c(c(N[C@@H](CC(C)C)Cn5cncn5)n3)CCC(C)(C)C4)C2)C1 [Example 1-45, 1-(6-(7,7-dimethyl-4-(((2S)-4-methyl-1-(1H-1,2,4-triazol-1-yl)-2-pentanyl)amino)-5,6,7,8-tetrahydro-2-quinazolinyl)-2,6-diazaspiro[3.4]octan-2-yl)-2-propen-1-one]	–	6.01	< 4.60	5.82	–
C=CC(=O)N1CC2(CCN(c3nc4c(c(N[C@@H](CC(C)C)Cn5cccn5)n3)CCC(C)(C)C4)C2)C1 [Example 1-46, 1-(6-(7,7-dimethyl-4-(((2S)-4-methyl-1-(1H-pyrazol-1-yl)-2-pentanyl)amino)-5,6,7,8-tetrahydro-2-quinazolinyl)-2,6-diazaspiro[3.4]octan-2-yl)-2-propen-1-one]	–	6.91	4.69	6.79	–
C=CC(=O)N1CC2(CCN(c3nc4c(c(N[C@H](Cc5ccon5)CC(C)C)n3)CCC(C)(C)C4)C2)C1 [Example 1-48, 1-(6-(7,7-dimethyl-4-(((2S)-4-methyl-1-(1,2-oxazol-3-yl)-2-pentanyl)amino)-5,6,7,8-tetrahydro-2-quinazolinyl)-2,6-diazaspiro[3.4]octan-2-yl)-2-propen-1-one]	–	7.31	4.80	7.28	–
C=CC(=O)N1CC2(CCN(c3nc4c(c(N[C@H](Cc5cc(C)no5)CC(C)C)n3)CCC(C)(C)C4)C2)C1 [Example 1-49, 1-(6-(7,7-dimethyl-4-(((2S)-4-methyl-1-(3-methyl-1,2-oxazol-5-yl)-2-pentanyl)amino)-5,6,7,8-tetrahydro-2-quinazolinyl)-2,6-diazaspiro[3.4]octan-2-yl)-2-propen-1-one]	–	6.66	4.94	–	93 nM
C=CC(=O)N1CC2(CCN(c3nc4c(c(N[C@H](CC(=O)NC)Cc5ccccc5)n3)CCC(C)(C)C4)C2)C1 [Example 1-50, (3S)-3-((7,7-dimethyl-2-(2-(2-propenoyl)-2,6-diazaspiro[3.4]octan-6-yl)-5,6,7,8-tetrahydro-4-quinazolinyl)amino)-N-methyl-4-phenylbutanamide]	–	6.23	< 4.60	5.88	–
C=CC(=O)N1CC2(CCN(c3nc4c(c(N[C@H](Cc5nnc(C)s5)CC(C)C)n3)CCC(C)(C)C4)C2)C1 [Example 1-51, 1-(6-(7,7-dimethyl-4-(((2S)-4-methyl-1-(5-methyl-1,3,4-thiadiazol-2-yl)-2-pentanyl)amino)-5,6,7,8-tetrahydro-2-quinazolinyl)-2,6-diazaspiro[3.4]octan-2-yl)-2-propen-1-one]	–	5.45	< 5.30	7.30	–
C=CC(=O)N1CC2(CCN(c3nc4c(c(N[C@H](Cc5nnc(C)o5)CC(C)C)n3)CCC(C)(C)C4)C2)C1 [Example 1-52, 1-(6-(7,7-dimethyl-4-(((2S)-4-methyl-1-(5-methyl-1,3,4-oxadiazol-2-yl)-2-pentanyl)amino)-5,6,7,8-tetrahydro-2-quinazolinyl)-2,6-diazaspiro[3.4]octan-2-yl)-2-propen-1-one]	–	5.85	< 5.30	7.41	–
C=CC(=O)N1CC2(CCN(c3nc4c(c(N[C@H](Cc5cc(C)on5)CC(C)C)n3)CCC(C)(C)C4)C2)C1 [Example 1-53, 1-(6-(7,7-dimethyl-4-(((2S)-4-methyl-1-(5-methyl-1,2-oxazol-3-yl)-2-pentanyl)amino)-5,6,7,8-tetrahydro-2-quinazolinyl)-2,6-diazaspiro[3.4]octan-2-yl)-2-propen-1-one]	–	6.00	< 5.30	7.62	–
C=CC(=O)N1CC2(CCN(c3nc4c(c(N[C@H](Cc5ncc[nH]5)CC(C)C)n3)CCC(C)(C)C4)C2)C1 [Example 1-54, 1-(6-(4-(((2S)-1-(1H-imidazol-2-yl)-4-methyl-2-pentanyl)amino)-7,7-dimethyl-5,6,7,8-tetrahydro-2-quinazolinyl)-2,6-diazaspiro[3.4]octan-2-yl)-2-propen-1-one]	–	5.88	< 5.30	7.31	–
C=CC(=O)N1CC2(CCN(c3nc4c(c(N[C@H](Cc5c[nH]nn5)CC(C)C)n3)CCC(C)(C)C4)C2)C1 [Example 1-55, 1-(6-(7,7-dimethyl-4-(((2S)-4-methyl-1-(1H-1,2,3-triazol-4-yl)-2-pentanyl)amino)-5,6,7,8-tetrahydro-2-quinazolinyl)-2,6-diazaspiro[3.4]octan-2-yl)-2-propen-1-one]	–	5.90	< 5.30	7.24	–
C=CC(=O)N1CC2(CCN(c3nc(N[C@H](CC(=O)NC)CC(C)C)c4ccncc4n3)C2)C1 [Example 1-56]	–	< 5.30	< 4.60	5.32	–
C=CC(=O)N1CC2(CCN(c3nc4c(c(N[C@H](Cc5ncco5)CC(C)C)n3)CCCC4)C2)C1 [Example 1-57, 1-(6-(4-(((2S)-4-methyl-1-(1,3-oxazol-2-yl)-2-pentanyl)amino)-5,6,7,8-tetrahydro-2-quinazolinyl)-2,6-diazaspiro[3.4]octan-2-yl)-2-propen-1-one]	–	5.60	4.75	5.68	–
C=C(C(=O)N1CC2(CCN(c3nc(N[C@H](CC(=O)NC)CC(C)C)c4ccc(C)cc4n3)C2)C1)C(F)(F)F [Example 1-58, (3S)-N,5-dimethyl-3-((7-methyl-2-(2-(2-(trifluoromethyl)-2-propenoyl)-2,6-diazaspiro[3.4]octan-6-yl)-4-quinazolinyl)amino)hexanamide]	–	5.74	4.87	6.39	–
C=CC(=O)N1CC2(CCN(c3nc(N[C@H](CC(=O)NC)CC(C)C)c4ccc(-c5nccs5)cc4n3)C2)C1 [Example 1-59, (3S)-N,5-dimethyl-3-((2-(2-(2-propenoyl)-2,6-diazaspiro[3.4]octan-6-yl)-7-(1,3-thiazol-2-yl)-4-quinazolinyl)amino)hexanamide]	–	7.80	5.10	8.00	–
C=CC(=O)N1CC2(CCN(c3nc4c(c(N[C@@H](CC(C)C)C(=O)NC)n3)CCCC4)C2)C1 [Example 1-60, (S)-2-((2-(2-acryloyl-2,6-diazaspiro[3.4]octan-6-yl)-5,6,7,8-tetrahydroquinazolin-4-yl)amino)-N,4-dimethylpentanamide]	–	5.15	4.75	–	8280 nM
